Test results reported in patent publication US20070244153A1 (priority 2004, published 2007).

Columns and labels:
Phytophthora infestans = format: in vivo; conditions: 250 ppm spray, tomato seedling 4-leaf stage, 4th day after inoculation; untreated not less than 60%
[1] = system: Pseudoperonospora cubensis; test: Controlling effect against cucumber downy mildew (spray on cucumber seedlings, 250 ppm); format: in vivo; conditions: 250 ppm spray, cucumber seedling 1-leaf stage, 7th day after inoculation; untreated 60 to 80%
Method: A solution of the compound in acetone was diluted with water to 250 ppm, and the solution was sprayed to the cucumber seedling (breed: Sagamihangbak, two per plastic pot having a diameter of 7.5 cm) at 1-leaf stage in an amount of 10 mL of the compound/pot. After air-drying, the pot was transferred to a moist chamber provided in the greenhouse, and inoculated by spray with a zoosporic suspension of Pseudoperonospora cubensis. On the 7th day after inoculation the infected area rate for the leaves was examined. Evaluation was carried out by the following criteria.
The infected area rate for untreated groups in the examination was 60 to 80%.

Plasmopara viticola = test: Controlling effect against grape downy mildew (leaf disk immersion, 250 ppm); format: in vivo; conditions: grape leaf disk immersed 3 hours, 10th day after inoculation, untreated 60 to 70%
Method: The developed leaf of grape seedling (breed: Cabernet Sauvignon) grown in 1/2000 a pot was cut and prepared a leaf disk having a diameter of 32 mm. A solution of the compound in acetone was diluted with water to 250 ppm, and the leaf disk was immersed for 3 hours. The disk was taken from the agent solution, subjected to air-drying, and then inoculated by spray with a zoosporangia suspension of Plasmopara viticola. The test disk was incubated at 18° C. for 12 hours in a light-dark light cycle. On the 10th day after inoculation the infected area rate for the leaf disk was examined. Evaluation was carried out by the following criteria. The infected area rate for the untreated groups in the examination was 60 to 70%.

SMILES | Effect: controlling effect against tomato late blight (infected area rate) (Phytophthora infestans) | melting point [°C] | Effect: controlling effect against cucumber downy mildew (infected area rate) [1] | Effect: controlling effect against grape downy mildew (infected area rate) (Plasmopara viticola)
C#CC[C@H](NC(=O)OCC(C)C)C(=O)N[C@H](CNC(=O)c1ccc(C)cc1)C(C)C [Compound No. 76, N-[2-methyl-1-(S)-[[(4-methylbenzoyl)amino]methyl]propyl]2-(S)-[(2-methylpropyloxycarbonyl)amino]-4-pentynamide] | A (Infected area rate of less than 5%) | 215.1 |  | 
CC(C)[C@@H](CNC(=O)c1cc2ccccc2o1)NC(=O)[C@H](C)NC(=O)OC(C)(C)C [Compound No. 601, N-[1-(S)-[[(benzofuran-2-carbonyl)amino]methyl]-2-methylpropyl]2-(S)-[(1,1-dimethylethyloxycarbonyl)amino]propionamide] | B (Infected area rate of 5% to less than 50%) | 163.1 | A (the infected area rate of less than 5%) | B (the infected area rate of 5% to less than 50%)
CC(C)COC(=O)N[C@H](C(=O)N[C@H](CNC(=O)c1cccs1)C(C)C)C(C)C [Compound No. 1020, N-[1-(S)-[[(thiophene-2-carbonyl)amino]methyl]-2-methylpropyl]3-methyl-2-(S)-[(2-methylpropyloxycarbonyl)amino]butyramide] | B (Infected area rate of 5% to less than 50%) | 204.9 | B (the infected area rate of 5% to less than 50%) | 
CC(C)[C@@H](CNC(=O)c1cc2ccccc2o1)NC(=O)C(C)(C)NC(=O)OC(C)(C)C |  | 140.5 |  | 
CC(C)OC(=O)N[C@H](C(=O)N[C@H](CNC(=O)c1cccc(Cl)n1)C(C)C)C(C)C [Compound No. 953, N-[1-(S)-[[(6-chloropyridine-2-carbonyl)amino]methyl]-2-methylpropyl]3-methyl-2-(S)-[(1-methylethyloxycarbonyl)amino]butyramide] | A (Infected area rate of less than 5%) | 204.9 | A (the infected area rate of less than 5%) | A (the infected area rate of less than 5%)
CC(C)OC(=O)N[C@@H](C)C(=O)N[C@H](CNC(=O)c1cc2ccccc2o1)C(C)C [Compound No. 599, N-[1-(S)-[[(benzofuran-2-carbonyl)amino]methyl]-2-methylpropyl]2-(S)-[(1-methylethyloxycarbonyl)amino]propionamide] | A (Infected area rate of less than 5%) | 146.4 | A (the infected area rate of less than 5%) | A (the infected area rate of less than 5%)
CC[C@H](C)[C@@H](CNC(=O)c1ccc2ccccc2n1)NC(=O)[C@@H](NC(=O)OC)C(C)C [Compound No. 698, N-[1-(S)-[[(quinoline-2-carbonyl)amino]methyl]-2-(S)-methylbutyl]2-(S)-(methyloxycarbonylamino)-3-methylbutyramide] | A (Infected area rate of less than 5%) | 174.6 | A (the infected area rate of less than 5%) | B (the infected area rate of 5% to less than 50%)
CCSC(=O)N[C@H](C(=O)N[C@H](CNC(=O)c1cc2ccccc2o1)C(C)C)C(C)C [Compound No. 793, N-[1-(S)-[[(benzofuran-2-carbonyl)amino]methyl]-2-methylpropyl][3-methyl-2-(S)-(ethylthiocarbonylamino)]butyramide] | A (Infected area rate of less than 5%) |  | A (the infected area rate of less than 5%) | A (the infected area rate of less than 5%)
C=COC(=O)N[C@H](C(=O)N[C@H](CNC(=O)c1cc2ccccc2o1)C(C)C)C(C)C [Compound No. 782, N-[1-(S)-[[(benzofuran-2-carbonyl)amino]methyl]-2-methylpropyl]3-methyl-2-(S)-[(vinyloxycarbonyl)amino]butyramide] | A (Infected area rate of less than 5%) | 192.7 | A (the infected area rate of less than 5%) | A (the infected area rate of less than 5%)
CC(C)OC(=O)N[C@H](C(=O)N[C@H](CNC(=O)c1ccccc1Cl)C(C)C)C(C)C [Compound No. 196, N-[1-(S)-[[(2-chlorobenzoyl)amino]methyl]-2-methylpropyl]3-methyl-2-(S)-[(1-methylethyloxycarbonyl)amino]butyramide] | A (Infected area rate of less than 5%) | 196.8 | B (the infected area rate of 5% to less than 50%) | 
CC(C)[C@H](NC(=O)OCc1ccccc1)C(=O)NC[C@@H](NC(=O)c1cc2ccccc2o1)C(C)C [Compound No. 678, N-[3-methyl-2-(S)-[(benzofuran-2-carbonyl)amino]butyl]2-(S)-[(benzyloxycarbonyl)amino]-3-methylbutyramide] | B (Infected area rate of 5% to less than 50%) |  | A (the infected area rate of less than 5%) | B (the infected area rate of 5% to less than 50%)
CC(CNC(=O)c1cc2ccccc2o1)NC(=O)[C@@H](NC(=O)OC(C)(C)C)C(C)C (mixture of isomers) [Compound No. 652, N-[2-(RS)-[[(benzofuran-2-carbonyl)amino]-1-methyl]ethyl][3-methyl-2-(S)-[N-(1,1-dimethylethyloxycarbonyl)amino]]butyramide] | A (Infected area rate of less than 5%) |  | A (the infected area rate of less than 5%) | B (the infected area rate of 5% to less than 50%)
